The values below come from patent US6579705B2, “Process for preparing non-proteinogenic L-amino acids” (Consortium fur Elektrochemische Industrie GmbH, priority 2001, dated 2003).

For data set [1], the target named is T1, O-acetyl-L-serine sulfhydrylase CysK (Escherichia coli, UniProt P0ABK5).
T1 construct: StrepTagII (WSHPQFEK) (C); made in house; host or cells: E. coli BLR21(DE3) carrying pLE4 (T7 promoter, pRSET5a)
It is filed as biochemical. The conditions noted are these: pH 7. Here is the method:
(§1) In order to use the O-acetyl-L-serine sulfhydrylases to prepare non-proteinogenic amino acids, other nucleophilic compounds were used in the reaction in place of sulfide or thiosulfate. In order to detect them, a precolumn derivatization for amino acids was carried out using ortho-phthaldialdehyde. Using this method, it was possible to carry out a broad screening for suitable nucleophilic substrates.
(§2) The mixtures contained 4 mM O-acetyl-L-serine (added from a 200 mM stock solution in 500 mM Nasuccinate buffer, pH 5.5), 20 mM nucleophilic compound, 100 mM K phosphate buffer, pH 7.0, and 5 μg of purified enzyme/ml. The reaction was stopped with 1/100th the volume of acetic acid (96% v/v) and analyzed by HPLC using a HP aminoquant column (200 mm×2.1 mm) in accordance with the manufacturer's instructions supplied by Hewlett Packard, Waldbronn, Germany.

Data set [2] addresses T2, O-acetyl-L-serine sulfhydrylase CysM (Escherichia coli, UniProt P16703).
T2 construct: StrepTagII (WSHPQFEK) (C); made in house; host or cells: E. coli DH5alpha carrying pFL145 (tet promoter, pASK-IBA3)
Format: biochemical. The conditions noted are these: pH 7. Here is the method:
as §1, §2

Data set [3] is classed as biochemical, Escherichia coli. Conditions: 10 mM O-acetyl-serine, pH 7.0, 37° C., 5 μg purified enzyme/ml; for specific activity Acys (formation of cysteine using sulfide): 10 mM sodium sulfide. Here is the method:
The activity of O-acetyl-L-serine sulfhydrylases is measured by detecting the “natural” reaction product L-cysteine (Cys) or alternatively, in the case of CysM, also by detecting the reaction product as S-sulfo-L-cysteine (S-Cys). Both products can be detected very specifically and very sensitively using the test described by Gaitonde (1967, Biochem. J. 104: 627-633).
A typical test mixture contained 10 mM O-acetyl-serine (added from a 200 mM stock solution in 500 mM sodium succinate buffer, pH 5.5), 10 mM sodium sulfide or sodium thiosulfate, 100 mM potassium phosphate buffer, pH 7.0, and 5 μg of purified enzyme/ml, and is incubated at 37° C. The specific activity, A, is given in units/mg of protein, i.e. in μmol of product×min^−1×mg^−1 of protein. Acys denotes the specific activity of the formation of cysteine using sulfide. AS-Cys denotes the specific activity of the formation of S-sulfocysteine using thiosulfate. The specific activities using the proteins isolated in example 2 were: […]

T1 sequence (P0ABK5 whole entry, looked up): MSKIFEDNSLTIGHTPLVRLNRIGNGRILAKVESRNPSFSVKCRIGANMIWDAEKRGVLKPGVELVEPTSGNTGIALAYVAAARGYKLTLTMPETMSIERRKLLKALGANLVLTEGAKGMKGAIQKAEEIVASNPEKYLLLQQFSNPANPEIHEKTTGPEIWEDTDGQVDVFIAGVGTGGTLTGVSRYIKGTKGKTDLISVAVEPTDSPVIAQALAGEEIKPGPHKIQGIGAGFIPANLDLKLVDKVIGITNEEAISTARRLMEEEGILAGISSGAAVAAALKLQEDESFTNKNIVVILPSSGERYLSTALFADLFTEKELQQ

As for `Sc1nccs1` [2-Mercaptothiazole], the CysK conversion result in data set [1] is “++ (key: +++: conversion greater than 70% after 30 min; ++: conversion greater than 40% after 30 min; +: conversion greater than 10% after 30 min; −: conversion less than 5% after 30 min)”. Moreover, the CysM conversion result in data set [2] was “+++ (key: +++: conversion greater than 70% after 30 min; ++: conversion greater than 40% after 30 min; +: conversion greater than 10% after 30 min; −: conversion less than 5% after 30 min)”.

On to `[SeH2]` [Sodium selenide], for which the CysK conversion result in data set [1] is “+++ (key: +++: conversion greater than 70% after 30 min; ++: conversion greater than 40% after 30 min; +: conversion greater than 10% after 30 min; −: conversion less than 5% after 30 min)”. Further, the CysM conversion result in data set [2] is “+++ (key: +++: conversion greater than 70% after 30 min; ++: conversion greater than 40% after 30 min; +: conversion greater than 10% after 30 min; −: conversion less than 5% after 30 min)”. As for `Sc1ccccc1` [Thiophenol], the CysK conversion entry in data set [1] is “++ (key: +++: conversion greater than 70% after 30 min; ++: conversion greater than 40% after 30 min; +: conversion greater than 10% after 30 min; −: conversion less than 5% after 30 min)”. Also, in data set [2], the CysM conversion entry is “+++ (key: +++: conversion greater than 70% after 30 min; ++: conversion greater than 40% after 30 min; +: conversion greater than 10% after 30 min; −: conversion less than 5% after 30 min)”. As to `O=C(O)c1ccc2[nH]nnc2c1` [5-Carboxy-1,2,3-benzotriazole], the CysK conversion result in data set [1] is recorded as “++ (key: +++: conversion greater than 70% after 30 min; ++: conversion greater than 40% after 30 min; +: conversion greater than 10% after 30 min; −: conversion less than 5% after 30 min)”. In addition, the CysM conversion entry in data set [2] is given as “+ (key: +++: conversion greater than 70% after 30 min; ++: conversion greater than 40% after 30 min; +: conversion greater than 10% after 30 min; −: conversion less than 5% after 30 min)”.

With `OCCS` [Mercaptoethanol], in data set [1], the CysK conversion entry was “+++ (key: +++: conversion greater than 70% after 30 min; ++: conversion greater than 40% after 30 min; +: conversion greater than 10% after 30 min; −: conversion less than 5% after 30 min)”. The CysM conversion entry in data set [2] was “+++ (key: +++: conversion greater than 70% after 30 min; ++: conversion greater than 40% after 30 min; +: conversion greater than 10% after 30 min; −: conversion less than 5% after 30 min)”. For 1,2-Pyrazole, in data set [1], the CysK conversion entry is on record as “++ (key: +++: conversion greater than 70% after 30 min; ++: conversion greater than 40% after 30 min; +: conversion greater than 10% after 30 min; −: conversion less than 5% after 30 min)”. Moreover, the CysM conversion result in data set [2] is “++ (key: +++: conversion greater than 70% after 30 min; ++: conversion greater than 40% after 30 min; +: conversion greater than 10% after 30 min; −: conversion less than 5% after 30 min)”. Turning to `O[C@@H](CS)[C@@H](O)CS` (racemic) [Dithiothreithol], the CysK conversion result in data set [1] was “+++ (key: +++: conversion greater than 70% after 30 min; ++: conversion greater than 40% after 30 min; +: conversion greater than 10% after 30 min; −: conversion less than 5% after 30 min)”. Further, the CysM conversion entry in data set [2] was “+++ (key: +++: conversion greater than 70% after 30 min; ++: conversion greater than 40% after 30 min; +: conversion greater than 10% after 30 min; −: conversion less than 5% after 30 min)”.

For `Nc1nc2nn[nH]c2c(=O)[nH]1` [8-Azaguanine], the CysK conversion result in data set [1] is recorded as “− (key: +++: conversion greater than 70% after 30 min; ++: conversion greater than 40% after 30 min; +: conversion greater than 10% after 30 min; −: conversion less than 5% after 30 min)”. The CysM conversion result in data set [2] is listed as “+ (key: +++: conversion greater than 70% after 30 min; ++: conversion greater than 40% after 30 min; +: conversion greater than 10% after 30 min; −: conversion less than 5% after 30 min)”. For the molecule `Sc1nc[nH]n1` [3 Mercapto-1,2,4-triazole], in data set [1], the CysK conversion entry is “+ (key: +++: conversion greater than 70% after 30 min; ++: conversion greater than 40% after 30 min; +: conversion greater than 10% after 30 min; −: conversion less than 5% after 30 min)”. Moreover, the CysM conversion result in data set [2] is “+++ (key: +++: conversion greater than 70% after 30 min; ++: conversion greater than 40% after 30 min; +: conversion greater than 10% after 30 min; −: conversion less than 5% after 30 min)”. `O=c1[nH]oc(=O)[nH]1` [1,2,4-Oxadiazolidine-3,5-dione]: the CysK conversion entry in data set [1] was “− (key: +++: conversion greater than 70% after 30 min; ++: conversion greater than 40% after 30 min; +: conversion greater than 10% after 30 min; −: conversion less than 5% after 30 min)”. Also, the CysM conversion result in data set [2] is listed as “+ (key: +++: conversion greater than 70% after 30 min; ++: conversion greater than 40% after 30 min; +: conversion greater than 10% after 30 min; −: conversion less than 5% after 30 min)”.

With `c1nc[nH]n1` [1,2,4-Triazole], in data set [1], the CysK conversion result is “+++ (key: +++: conversion greater than 70% after 30 min; ++: conversion greater than 40% after 30 min; +: conversion greater than 10% after 30 min; −: conversion less than 5% after 30 min)”. In addition, in data set [2], the CysM conversion entry is listed as “++ (key: +++: conversion greater than 70% after 30 min; ++: conversion greater than 40% after 30 min; +: conversion greater than 10% after 30 min; −: conversion less than 5% after 30 min)”. With `[SeH]c1ccccc1` [Phenylselenol], in data set [1], the CysK conversion result was “++ (key: +++: conversion greater than 70% after 30 min; ++: conversion greater than 40% after 30 min; +: conversion greater than 10% after 30 min; −: conversion less than 5% after 30 min)”. In data set [2], the CysM conversion entry is given as “+++ (key: +++: conversion greater than 70% after 30 min; ++: conversion greater than 40% after 30 min; +: conversion greater than 10% after 30 min; −: conversion less than 5% after 30 min)”. Consider `c1nn[nH]n1` [1,2,3,4-Tetrazole], for which, in data set [1], the CysK conversion result is “+++ (key: +++: conversion greater than 70% after 30 min; ++: conversion greater than 40% after 30 min; +: conversion greater than 10% after 30 min; −: conversion less than 5% after 30 min)”. Moreover, the CysM conversion result in data set [2] is “++ (key: +++: conversion greater than 70% after 30 min; ++: conversion greater than 40% after 30 min; +: conversion greater than 10% after 30 min; −: conversion less than 5% after 30 min)”.

On to `c1ccc2[nH]nnc2c1` [1,2,3-Benzotriazole], for which the CysK conversion entry in data set [1] is “++ (key: +++: conversion greater than 70% after 30 min; ++: conversion greater than 40% after 30 min; +: conversion greater than 10% after 30 min; −: conversion less than 5% after 30 min)”. In addition, in data set [2], the CysM conversion entry is given as “+ (key: +++: conversion greater than 70% after 30 min; ++: conversion greater than 40% after 30 min; +: conversion greater than 10% after 30 min; −: conversion less than 5% after 30 min)”. Consider `[N-]=[N+]=[N-].[Na+]` [Sodium azide], for which, in data set [1], the CysK conversion entry is “+++ (key: +++: conversion greater than 70% after 30 min; ++: conversion greater than 40% after 30 min; +: conversion greater than 10% after 30 min; −: conversion less than 5% after 30 min)”. In data set [2], the CysM conversion entry is recorded as “+++ (key: +++: conversion greater than 70% after 30 min; ++: conversion greater than 40% after 30 min; +: conversion greater than 10% after 30 min; −: conversion less than 5% after 30 min)”.

B1: CysM: Escherichia coli O-acetyl-L-serine sulfhydrylase with C-terminal StrepTagII, purified by affinity chromatography (protein, UniProt P16703 1-303, looked up)
Cysteine synthase B: MSTLEQTIGNTPLVKLQRMGPDNGSEVWLKLEGNNPAGSVKDRAALSMIVEAEKRGEIKPGDVLIEATSGNTGIALAMIAALKGYRMKLLMPDNMSQERRAAMRAYGAELILVTKEQGMEGARDLALEMANRGEGKLLDQFNNPDNPYAHYTTTGPEIWQQTGGRITHFVSSMGTTGTITGVSRFMREQSKPVTIVGLQPEEGSSIPGIRRWPTEYLPGIFNASLVDEVLDIHQRDAENTMRELAVREGIFCGVSSGGAVAGALRVAKANPDAVVVAIICDRGDRYLSTGVFGEEHFSQGAGI
Consider B1, for which the “specific activity Acys (formation of cysteine using sulfide)” value in data set [3] was found to be 199 units/mg. Also, the “specific activity AS-cys (formation of S-sulfocysteine using thiosulfate)” value in data set [3] (10 mM sodium thiosulfate) was determined as 145 units/mg.

B2: CysK: Escherichia coli O-acetyl-L-serine sulfhydrylase with C-terminal StrepTagII, purified by affinity chromatography (protein, UniProt P0ABK5 2-323, looked up)
Cysteine synthase A: SKIFEDNSLTIGHTPLVRLNRIGNGRILAKVESRNPSFSVKCRIGANMIWDAEKRGVLKPGVELVEPTSGNTGIALAYVAAARGYKLTLTMPETMSIERRKLLKALGANLVLTEGAKGMKGAIQKAEEIVASNPEKYLLLQQFSNPANPEIHEKTTGPEIWEDTDGQVDVFIAGVGTGGTLTGVSRYIKGTKGKTDLISVAVEPTDSPVIAQALAGEEIKPGPHKIQGIGAGFIPANLDLKLVDKVIGITNEEAISTARRLMEEEGILAGISSGAAVAAALKLQEDESFTNKNIVVILPSSGERYLSTALFADLFTEKELQQ
Turning to B2, the “specific activity Acys (formation of cysteine using sulfide)” value in data set [3] was 140 units/mg.
